Assay results as given in patent US7396837B2, “Antitumoral analogs of lamellarins” (Pharma Mar, S.A.U., priority 2002, dated 2008).

Legend:
Type in all cases: cell-based
HT-29 = test: SRB colorimetric cell growth inhibition assay, HT-29; conditions: Homo sapiens, HT-29, HT-29; for GI50: GI=growth inhibition, read-out: GI50 HT-29; for CC50: LC=cell killing (cytotoxic effect), read-out: LC50 HT-29; for IC (TGI): TGI=total growth inhibition (cytostatic effect), read-out: TGI HT-29
How it was run: (§1)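 Cancer cells grown in vitro were continuously treated with compound. Cell mass was then determined by SRB staining and expressed as growth inhibition.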

PANC-1 = test: SRB colorimetric cell growth inhibition assay, PANC-1; conditions: Homo sapiens, PANC-1, PANC-1; for GI50: GI=growth inhibition, read-out: GI50 PANC-1; for CC50: LC=cell killing (cytotoxic effect), read-out: LC50 PANC-1; for IC (TGI): TGI=total growth inhibition (cytostatic effect), read-out: TGI PANC-1
How it was run: as §1

DU-145 = test: SRB colorimetric cell growth inhibition assay, DU-145; conditions: Homo sapiens, DU-145, DU-145; for GI50: GI=growth inhibition, read-out: GI50 DU-145; for CC50: LC=cell killing (cytotoxic effect), read-out: LC50 DU-145; for IC (TGI): TGI=total growth inhibition (cytostatic effect), read-out: TGI DU-145
How it was run: as §1

LoVo-Dox = test: SRB colorimetric cell growth inhibition assay, LoVo-Dox (MDR); conditions: Homo sapiens, LOVO-DOX; for GI50: GI=growth inhibition, read-out: GI50 LOVO-DOX; for CC50: LC=cell killing (cytotoxic effect), read-out: LC50 LOVO-DOX; for IC (TGI): TGI=total growth inhibition (cytostatic effect), read-out: TGI LOVO-DOX
How it was run: as §1

SK-MEL-28 = test: SRB colorimetric cell growth inhibition assay, SK-MEL-28; conditions: Homo sapiens, SK-MEL-28, MEL-28; for GI50: GI=growth inhibition, read-out: GI50 MEL-28; for CC50: LC=cell killing (cytotoxic effect), read-out: LC50 MEL-28; for IC (TGI): TGI=total growth inhibition (cytostatic effect), read-out: TGI MEL-28
How it was run: as §1

HeLa-APL = test: SRB colorimetric cell growth inhibition assay, HeLa-APL (aplidine resistant); conditions: Homo sapiens, HELA-APL; for GI50: GI=growth inhibition, read-out: GI50 HELA-APL; for CC50: LC=cell killing (cytotoxic effect), read-out: LC50 HELA-APL; for IC (TGI): TGI=total growth inhibition (cytostatic effect), read-out: TGI HELA-APL
How it was run: as §1

IGROV-ET = test: SRB colorimetric cell growth inhibition assay, IGROV-ET (ET-743 resistant); conditions: Homo sapiens, IGROV-ET; for GI50: GI=growth inhibition, read-out: GI50 IGROV-ET; for CC50: LC=cell killing (cytotoxic effect), read-out: LC50 IGROV-ET; for IC (TGI): TGI=total growth inhibition (cytostatic effect), read-out: TGI IGROV-ET
How it was run: as §1

HeLa = test: SRB colorimetric cell growth inhibition assay, HeLa; conditions: Homo sapiens, HeLa; for GI50: GI=growth inhibition, read-out: GI50 HELA; for CC50: LC=cell killing (cytotoxic effect), read-out: LC50 HELA; for IC (TGI): TGI=total growth inhibition (cytostatic effect), read-out: TGI HELA
How it was run: as §1

SK-BR-3 = test: SRB colorimetric cell growth inhibition assay, SK-BR-3; conditions: Homo sapiens, SK-BR-3, SK-BR-3; for GI50: GI=growth inhibition, read-out: GI50 SK-BR-3; for CC50: LC=cell killing (cytotoxic effect), read-out: LC50 SK-BR-3; for IC (TGI): TGI=total growth inhibition (cytostatic effect), read-out: TGI SK-BR-3
How it was run: as §1

K-562 = test: SRB colorimetric cell growth inhibition assay, K-562; conditions: Homo sapiens, K562, K-562; for GI50: GI=growth inhibition, read-out: GI50 K-562; for CC50: LC=cell killing (cytotoxic effect), read-out: LC50 K-562; for IC (TGI): TGI=total growth inhibition (cytostatic effect), read-out: TGI K-562
How it was run: as §1

LNCaP = test: SRB colorimetric cell growth inhibition assay, LNCaP; conditions: Homo sapiens, LNCaP, LN-caP; for GI50: GI=growth inhibition, read-out: GI50 LN-caP; for CC50: LC=cell killing (cytotoxic effect), read-out: LC50 LN-caP; for IC (TGI): TGI=total growth inhibition (cytostatic effect), read-out: TGI LN-caP
How it was run: as §1

LoVo = test: SRB colorimetric cell growth inhibition assay, LoVo; conditions: Homo sapiens, LoVo; for GI50: GI=growth inhibition, read-out: GI50 LOVO; for CC50: LC=cell killing (cytotoxic effect), read-out: LC50 LOVO; for IC (TGI): TGI=total growth inhibition (cytostatic effect), read-out: TGI LOVO
How it was run: as §1

IGROV = test: SRB colorimetric cell growth inhibition assay, IGROV; conditions: Homo sapiens, IGROV; for GI50: GI=growth inhibition, read-out: GI50 IGROV; for CC50: LC=cell killing (cytotoxic effect), read-out: LC50 IGROV; for IC (TGI): TGI=total growth inhibition (cytostatic effect), read-out: TGI IGROV
How it was run: as §1

A-549 = test: SRB colorimetric cell growth inhibition assay, A-549; conditions: Homo sapiens, A549, A-549; for GI50: GI=growth inhibition, read-out: GI50 A-549; for CC50: LC=cell killing (cytotoxic effect), read-out: LC50 A-549; for IC (TGI): TGI=total growth inhibition (cytostatic effect), read-out: TGI A-549
How it was run: as §1

COc1cc2c(cc1OC)-c1c(-c3ccc(OC(=O)CCCC[C@@H]4SC[C@@H]5NC(=O)N[C@@H]54)c(OC)c3)c3c4cc(OC)c(OC(=O)CCCC[C@@H]5SC[C@@H]6NC(=O)N[C@@H]65)cc4oc(=O)c3n1CC2 [Compound 47]
GI50 (HT-29): 1.25 µM
CC50 (HT-29): 10.3 µM
IC (TGI) (HT-29): 10.3 µM
GI50 (PANC-1): 3.86 µM
CC50 (PANC-1): 10.3 µM
IC (TGI) (PANC-1): 10.3 µM
GI50 (DU-145): 1.08 µM
CC50 (DU-145): 10.3 µM
IC (TGI) (DU-145): 4.61 µM
GI50 (LoVo-Dox): 8.09 µM
CC50 (LoVo-Dox): 10.3 µM
IC (TGI) (LoVo-Dox): 10.3 µM
GI50 (SK-MEL-28): 2.07 µM
CC50 (SK-MEL-28): 10.3 µM
IC (TGI) (SK-MEL-28): 10.3 µM
GI50 (HeLa-APL): 5.75 µM
CC50 (HeLa-APL): 10.3 µM
IC (TGI) (HeLa-APL): 10.3 µM
GI50 (IGROV-ET): 2.07 µM
CC50 (IGROV-ET): 10.3 µM
IC (TGI) (IGROV-ET): 10.3 µM
GI50 (HeLa): 0.537 µM
CC50 (HeLa): 10.3 µM
IC (TGI) (HeLa): 4.79 µM
GI50 (SK-BR-3): 2.29 µM
CC50 (SK-BR-3): 10.3 µM
IC (TGI) (SK-BR-3): 6.01 µM
GI50 (K-562): 0.564 µM
CC50 (K-562): 10.3 µM
IC (TGI) (K-562): 3.74 µM
GI50 (LNCaP): 0.0884 µM
CC50 (LNCaP): 5.87 µM
IC (TGI) (LNCaP): 1.59 µM
GI50 (LoVo): 3.97 µM
CC50 (LoVo): 10.3 µM
IC (TGI) (LoVo): 10.3 µM
GI50 (IGROV): 0.764 µM
CC50 (IGROV): 10.3 µM
IC (TGI) (IGROV): 10.3 µM
GI50 (A-549): 3.26 µM
CC50 (A-549): 10.3 µM
IC (TGI) (A-549): 10.3 µM

COc1cc(-c2c3c4cc(OC)c(O)cc4oc(=O)c3n3ccc4c([N+](=O)[O-])cccc4c23)ccc1O [Compound 53]
GI50 (HT-29): 2.17 µM
CC50 (HT-29): 20.1 µM
IC (TGI) (HT-29): 20.1 µM
GI50 (PANC-1): 1.03 µM
CC50 (PANC-1): 20.1 µM
IC (TGI) (PANC-1): 9.67 µM
GI50 (DU-145): 4.53 µM
CC50 (DU-145): 20.1 µM
IC (TGI) (DU-145): 12.3 µM
GI50 (LoVo-Dox): 20.1 µM
CC50 (LoVo-Dox): 20.1 µM
IC (TGI) (LoVo-Dox): 20.1 µM
GI50 (SK-MEL-28): 4.03 µM
CC50 (SK-MEL-28): 20.1 µM
IC (TGI) (SK-MEL-28): 15.5 µM
GI50 (HeLa-APL): 20.1 µM
CC50 (HeLa-APL): 20.1 µM
IC (TGI) (HeLa-APL): 20.1 µM
GI50 (IGROV-ET): 20.1 µM
CC50 (IGROV-ET): 20.1 µM
IC (TGI) (IGROV-ET): 20.1 µM
GI50 (HeLa): 0.59 µM
CC50 (HeLa): 20.1 µM
IC (TGI) (HeLa): 12.3 µM
GI50 (SK-BR-3): 1.99 µM
CC50 (SK-BR-3): 20.1 µM
IC (TGI) (SK-BR-3): 9.49 µM
GI50 (K-562): 10.3 µM
CC50 (K-562): 20.1 µM
IC (TGI) (K-562): 20.1 µM
GI50 (LNCaP): 4.01 µM
CC50 (LNCaP): 20.1 µM
IC (TGI) (LNCaP): 9.75 µM
GI50 (LoVo): 11.1 µM
CC50 (LoVo): 20.1 µM
IC (TGI) (LoVo): 20.1 µM
GI50 (IGROV): 1.38 µM
CC50 (IGROV): 20.1 µM
IC (TGI) (IGROV): 20.1 µM
GI50 (A-549): 5.66 µM
CC50 (A-549): 20.1 µM
IC (TGI) (A-549): 20.1 µM
